Legend:
[1] = target: Neuronal acetylcholine receptor; alpha4/beta2 (Homo sapiens, UniProt P17787+P43681); assay: Binding affinity at heteropentameric Nicotinic acetylcholine receptor alpha4-beta2 subtype using […] as radioligand; format: protein-complex assay
[2] = target: Neuronal acetylcholine receptor subunit alpha-7 (Homo sapiens, UniProt P36544); assay: Binding affinity at homopentameric Nicotinic acetylcholine receptor alpha-7 subtype using [3H]-alpha-bungarotoxin as radioligand
Sequence of Neuronal acetylcholine receptor subunit alpha-7 (P36544 whole entry): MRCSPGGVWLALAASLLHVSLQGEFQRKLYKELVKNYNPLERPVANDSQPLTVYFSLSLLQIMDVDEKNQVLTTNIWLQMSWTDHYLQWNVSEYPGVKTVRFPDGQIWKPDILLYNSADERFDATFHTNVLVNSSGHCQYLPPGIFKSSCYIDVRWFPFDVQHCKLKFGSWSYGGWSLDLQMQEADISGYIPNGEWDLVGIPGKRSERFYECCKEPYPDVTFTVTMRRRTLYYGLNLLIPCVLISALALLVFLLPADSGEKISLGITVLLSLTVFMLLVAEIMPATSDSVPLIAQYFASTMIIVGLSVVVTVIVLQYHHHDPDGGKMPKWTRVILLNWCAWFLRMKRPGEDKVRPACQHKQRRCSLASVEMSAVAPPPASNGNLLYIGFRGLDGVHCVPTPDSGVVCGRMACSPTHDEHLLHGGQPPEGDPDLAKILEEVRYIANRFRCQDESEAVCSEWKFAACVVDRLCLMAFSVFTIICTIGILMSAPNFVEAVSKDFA

Sequence of Neuronal acetylcholine receptor; alpha4/beta2 (P17787 whole entry): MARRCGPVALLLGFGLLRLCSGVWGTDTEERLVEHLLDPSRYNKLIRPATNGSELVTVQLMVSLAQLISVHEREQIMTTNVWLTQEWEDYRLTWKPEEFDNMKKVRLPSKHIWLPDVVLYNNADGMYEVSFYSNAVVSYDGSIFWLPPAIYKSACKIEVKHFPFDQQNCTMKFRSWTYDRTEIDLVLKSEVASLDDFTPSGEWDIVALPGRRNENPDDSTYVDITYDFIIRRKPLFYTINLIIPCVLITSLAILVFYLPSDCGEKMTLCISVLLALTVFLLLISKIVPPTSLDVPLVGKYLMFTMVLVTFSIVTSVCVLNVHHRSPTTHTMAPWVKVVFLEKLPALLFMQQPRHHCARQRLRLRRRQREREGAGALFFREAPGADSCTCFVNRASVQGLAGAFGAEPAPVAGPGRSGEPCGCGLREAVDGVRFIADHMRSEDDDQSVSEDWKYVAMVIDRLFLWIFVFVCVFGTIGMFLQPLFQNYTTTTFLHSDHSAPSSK
Sequence of Neuronal acetylcholine receptor; alpha4/beta2 (P43681 whole entry): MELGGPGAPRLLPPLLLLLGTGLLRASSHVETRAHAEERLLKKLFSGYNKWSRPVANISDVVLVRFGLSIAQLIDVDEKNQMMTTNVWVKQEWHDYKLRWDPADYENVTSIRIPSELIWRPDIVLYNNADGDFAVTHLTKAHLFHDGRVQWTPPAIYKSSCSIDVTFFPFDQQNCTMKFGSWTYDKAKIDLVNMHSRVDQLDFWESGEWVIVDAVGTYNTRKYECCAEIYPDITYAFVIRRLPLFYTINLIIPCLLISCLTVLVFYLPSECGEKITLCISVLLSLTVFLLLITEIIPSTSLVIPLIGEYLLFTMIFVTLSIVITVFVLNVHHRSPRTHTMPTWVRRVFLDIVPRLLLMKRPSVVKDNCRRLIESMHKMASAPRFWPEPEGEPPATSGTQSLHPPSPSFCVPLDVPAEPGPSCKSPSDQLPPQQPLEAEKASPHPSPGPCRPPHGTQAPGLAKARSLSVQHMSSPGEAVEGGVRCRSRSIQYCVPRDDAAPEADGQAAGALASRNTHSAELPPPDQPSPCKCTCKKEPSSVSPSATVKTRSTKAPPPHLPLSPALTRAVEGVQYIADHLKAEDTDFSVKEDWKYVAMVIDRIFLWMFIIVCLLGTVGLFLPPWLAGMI

Row | SMILES | Ki [1] | Ki [2]
1 | CN1CCCCC1c1cccnc1 (stereo not given) | 0.45 µM | 9.7 µM
2 | CN1C2CCC1C(c1ccc(Cl)nc1)C2 (stereo not given) | 0.00026 µM | –
3 | c1cncc(C2CCN2)c1 (stereo not given) | 0.0011 µM | –
4 | c1cncc(C2CCCCN2)c1 (stereo not drawn) [DL-ANABASINE] | 0.092 µM | 0.45 µM
5 | Clc1ccc(C2CC3CCC2N3)cn1 (stereo not given) [EPIBATIDINE] | – | 0.025 µM
6 | c1cncc([C@@H]2CCCN2)c1 [NORNICOTINE] | – | 0.73 µM
7 | C[N+](C)(C)C [TETRAMETHYLAMMONIUM ION] | 0.024 µM | 2.3 µM

From ChEMBL document CHEMBL1132338, “Molecular recognition in nicotinic acetylcholine receptors: the importance of pi-cation interactions” (J Med Chem, 1999)
